Results on 3 compounds are retold here after patent publication US20250368678A1, “19-NOR-C3,3-DISUBSTITUTED C21-AZACYCLO-S[…] AND METHOD FOR USING SAME” (SHANDONG LUYE PHARMACEUTICAL CO., LTD., priority 2022, published 2025).

T1 sequence (P48169 36-554): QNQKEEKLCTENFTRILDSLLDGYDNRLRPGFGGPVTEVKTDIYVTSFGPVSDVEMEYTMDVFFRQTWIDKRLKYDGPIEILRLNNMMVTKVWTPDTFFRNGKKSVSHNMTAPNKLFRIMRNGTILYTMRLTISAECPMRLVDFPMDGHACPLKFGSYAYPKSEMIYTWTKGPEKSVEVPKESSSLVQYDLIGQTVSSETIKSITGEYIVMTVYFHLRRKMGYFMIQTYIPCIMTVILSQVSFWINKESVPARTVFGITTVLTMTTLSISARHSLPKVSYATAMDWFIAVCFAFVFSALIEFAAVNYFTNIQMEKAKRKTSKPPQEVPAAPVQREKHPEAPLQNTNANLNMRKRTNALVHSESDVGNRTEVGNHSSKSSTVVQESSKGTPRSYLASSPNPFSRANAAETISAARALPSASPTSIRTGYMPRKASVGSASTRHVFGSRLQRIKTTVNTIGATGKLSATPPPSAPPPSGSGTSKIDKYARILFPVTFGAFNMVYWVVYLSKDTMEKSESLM
T1 sequence (P28472 26-473): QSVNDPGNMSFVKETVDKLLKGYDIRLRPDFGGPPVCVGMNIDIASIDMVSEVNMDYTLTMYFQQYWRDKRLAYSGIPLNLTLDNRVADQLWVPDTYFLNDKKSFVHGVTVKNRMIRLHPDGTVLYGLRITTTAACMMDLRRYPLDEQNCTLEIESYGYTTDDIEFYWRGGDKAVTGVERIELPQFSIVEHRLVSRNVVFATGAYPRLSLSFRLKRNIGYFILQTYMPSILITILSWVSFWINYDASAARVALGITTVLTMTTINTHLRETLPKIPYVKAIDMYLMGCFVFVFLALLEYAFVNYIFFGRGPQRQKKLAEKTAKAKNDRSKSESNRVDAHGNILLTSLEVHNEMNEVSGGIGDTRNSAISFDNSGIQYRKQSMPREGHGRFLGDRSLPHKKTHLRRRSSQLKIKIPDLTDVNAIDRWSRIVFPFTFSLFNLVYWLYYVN
T1 sequence (O14764 25-452 partner): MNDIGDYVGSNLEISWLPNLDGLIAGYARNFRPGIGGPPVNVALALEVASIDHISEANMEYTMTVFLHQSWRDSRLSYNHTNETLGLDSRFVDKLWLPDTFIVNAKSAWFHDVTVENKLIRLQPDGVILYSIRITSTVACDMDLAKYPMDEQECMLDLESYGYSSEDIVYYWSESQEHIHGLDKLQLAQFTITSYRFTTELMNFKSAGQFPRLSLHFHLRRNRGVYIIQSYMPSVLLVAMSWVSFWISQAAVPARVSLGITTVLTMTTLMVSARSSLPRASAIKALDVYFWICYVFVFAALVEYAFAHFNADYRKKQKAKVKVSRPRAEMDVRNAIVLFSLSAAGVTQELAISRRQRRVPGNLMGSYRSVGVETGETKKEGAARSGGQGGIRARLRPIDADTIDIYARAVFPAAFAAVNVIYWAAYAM

One data set addresses T1, α4β3δ GABA receptors (α4β3δ-HEK-FlpIn-TRex stable cell strain) (Homo sapiens, UniProt P28472+P48169).
T1 construct: expressed in transfected cells
The data set can be described thus: Whole-cell patch clamp, extrasynaptic functional activity (positive allosteric regulation of GABA-induced current). It counts as cell-based. Particulars: patch clamp -60 mV, GABA at EC10-20, α4β3δ-HEK-FlpIn-TRex cells. In outline: (§1)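 Tetracycline-induced stable lines were used: α4β3δ in HEK-FlpIn-TRex and α1β2γ2 in CHO-TRex. Whole-cell patch clamp was run at −60 mV with GABA at EC10-20 ([…]) and compound perfused for 30 s before GABA, with extracellular pH 7.4. Fold increase in GABA current over ≥5 concentrations on ≥3 cells gave EC50 and Emax by Hill fit.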
(In patch-clamp work, channel activity is measured electrically.)
As for `C[C@@]1(O)CC[C@H]2[C@H](CC[C@@H]3[C@@H]2CC[C@]2(C)[C@@H](C(=O)Cn4cnn(-c5cccc(C#N)c5)c4=O)CC[C@@H]32)C1` [Compound 34], the EC50 stood at 50 nM and the Emax came to 683%.

`Cc1cc(-n2ncn(CC(=O)[C@H]3CC[C@H]4[C@@H]5CC[C@@H]6C[C@](C)(O)CC[C@@H]6[C@H]5CC[C@]34C)c2=O)ccn1` [Compound 36] had an EC50 of 99 nM and an Emax of 745%.

`C[C@@]1(O)CC[C@H]2[C@H](CC[C@@H]3[C@@H]2CC[C@]2(C)[C@@H](C(=O)Cn4cnn(-c5ccnc(OC(F)(F)F)c5)c4=O)CC[C@@H]32)C1` [Compound 38] registered a concentration giving a half-maximal response (EC50) of 115 nM and an Emax of 625%.

Tested on in the next data set: not listed separately
The data set can be described thus: In vitro liver microsomal stability assay, rat. It counts as in vitro ADME. Conditions: Rat liver microsomes. In outline:
(§2)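 Test compound at […] was incubated at 37° C with 0.5 mg/mL rat or human liver microsomes, 1 mM NADPH and 3 mM MgCl2, in triplicate, sampled 0–60 min. Remaining parent was quantified by LC-MS/MS, giving half-life and microsomal and hepatic intrinsic clearance.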
(In general: Liver microsomes are a subcellular fraction often used to study metabolism.)
With `C[C@@]1(O)CC[C@H]2[C@H](CC[C@@H]3[C@@H]2CC[C@]2(C)[C@@H](C(=O)Cn4cnn(-c5cccc(C#N)c5)c4=O)CC[C@@H]32)C1` [Compound 34], the CLint scaled at 1 µM was found to be 98 mL/min/kg and the half-life at 1 µM is 25.6 min.

As to `Cc1cc(-n2ncn(CC(=O)[C@H]3CC[C@H]4[C@@H]5CC[C@@H]6C[C@](C)(O)CC[C@@H]6[C@H]5CC[C@]34C)c2=O)ccn1` [Compound 36], the CLint scaled at 1 µM was 125 mL/min/kg and the half-life at 1 µM is 29 min.

Compound `C[C@@]1(O)CC[C@H]2[C@H](CC[C@@H]3[C@@H]2CC[C@]2(C)[C@@H](C(=O)Cn4cnn(-c5ccnc(OC(F)(F)F)c5)c4=O)CC[C@@H]32)C1` [Compound 38] displayed an intrinsic metabolic clearance (CLint scaled) at 1 µM of 12 mL/min/kg and a half-life at 1 µM of 210 min.

The data set is the same for the next values; noted with them: Rat liver microsomes 0.5 mg/mL, NADPH.
As to `C[C@@]1(O)CC[C@H]2[C@H](CC[C@@H]3[C@@H]2CC[C@]2(C)[C@@H](C(=O)Cn4cnn(-c5cccc(C#N)c5)c4=O)CC[C@@H]32)C1` [Compound 34], the “Remaining amount % at 60 min” value came to 20.5%.

With `Cc1cc(-n2ncn(CC(=O)[C@H]3CC[C@H]4[C@@H]5CC[C@@H]6C[C@](C)(O)CC[C@@H]6[C@H]5CC[C@]34C)c2=O)ccn1` [Compound 36], the “Remaining amount % at 60 min” value amounted to 12.2%.

`C[C@@]1(O)CC[C@H]2[C@H](CC[C@@H]3[C@@H]2CC[C@]2(C)[C@@H](C(=O)Cn4cnn(-c5ccnc(OC(F)(F)F)c5)c4=O)CC[C@@H]32)C1` [Compound 38]: the “Remaining amount % at 60 min” value was found to be 82.9%.

Still in this data set, the particulars now being: Rat liver microsomes; read-out: CLint(mic).
In the case of `C[C@@]1(O)CC[C@H]2[C@H](CC[C@@H]3[C@@H]2CC[C@]2(C)[C@@H](C(=O)Cn4cnn(-c5cccc(C#N)c5)c4=O)CC[C@@H]32)C1` [Compound 34], the microsomal CLint at 1 µM came out at 54 µL/min/mg.

As to `Cc1cc(-n2ncn(CC(=O)[C@H]3CC[C@H]4[C@@H]5CC[C@@H]6C[C@](C)(O)CC[C@@H]6[C@H]5CC[C@]34C)c2=O)ccn1` [Compound 36], the microsomal CLint at 1 µM came out at 69 µL/min/mg.

With `C[C@@]1(O)CC[C@H]2[C@H](CC[C@@H]3[C@@H]2CC[C@]2(C)[C@@H](C(=O)Cn4cnn(-c5ccnc(OC(F)(F)F)c5)c4=O)CC[C@@H]32)C1` [Compound 38], the microsomal CLint at 1 µM came out at 7 µL/min/mg.

Tested on in a further data set: not listed separately
The data set can be described thus: In vitro liver microsomal stability assay, human. Conditions: Human liver microsomes. It counts as in vitro ADME. Summed up: as §2
`C[C@@]1(O)CC[C@H]2[C@H](CC[C@@H]3[C@@H]2CC[C@]2(C)[C@@H](C(=O)Cn4cnn(-c5cccc(C#N)c5)c4=O)CC[C@@H]32)C1` [Compound 34] yielded a CLint scaled at 1 µM of 7 mL/min/kg and a half-life at 1 µM of 178 min.

`Cc1cc(-n2ncn(CC(=O)[C@H]3CC[C@H]4[C@@H]5CC[C@@H]6C[C@](C)(O)CC[C@@H]6[C@H]5CC[C@]34C)c2=O)ccn1` [Compound 36] displayed a CLint scaled at 1 µM of 53 mL/min/kg and a half-life at 1 µM of 23 min.

As for `C[C@@]1(O)CC[C@H]2[C@H](CC[C@@H]3[C@@H]2CC[C@]2(C)[C@@H](C(=O)Cn4cnn(-c5ccnc(OC(F)(F)F)c5)c4=O)CC[C@@H]32)C1` [Compound 38], the CLint scaled at 1 µM is below 6.75 mL/min/kg and the half-life at 1 µM was above 186 min.

Still in this data set, the particulars now being: Human liver microsomes 0.5 mg/mL, NADPH.
`C[C@@]1(O)CC[C@H]2[C@H](CC[C@@H]3[C@@H]2CC[C@]2(C)[C@@H](C(=O)Cn4cnn(-c5cccc(C#N)c5)c4=O)CC[C@@H]32)C1` [Compound 34]: the “Remaining amount % at 60 min” value is 79.9%.

With `Cc1cc(-n2ncn(CC(=O)[C@H]3CC[C@H]4[C@@H]5CC[C@@H]6C[C@](C)(O)CC[C@@H]6[C@H]5CC[C@]34C)c2=O)ccn1` [Compound 36], the “Remaining amount % at 60 min” value is 15.9%.

As for `C[C@@]1(O)CC[C@H]2[C@H](CC[C@@H]3[C@@H]2CC[C@]2(C)[C@@H](C(=O)Cn4cnn(-c5ccnc(OC(F)(F)F)c5)c4=O)CC[C@@H]32)C1` [Compound 38], the “Remaining amount % at 60 min” value amounted to 97.3%.

Still in this data set, the particulars now being: Human liver microsomes; read-out: CLint(mic).
For the compound `C[C@@]1(O)CC[C@H]2[C@H](CC[C@@H]3[C@@H]2CC[C@]2(C)[C@@H](C(=O)Cn4cnn(-c5cccc(C#N)c5)c4=O)CC[C@@H]32)C1` [Compound 34], the microsomal CLint at 1 µM worked out at 8 µL/min/mg.

With `Cc1cc(-n2ncn(CC(=O)[C@H]3CC[C@H]4[C@@H]5CC[C@@H]6C[C@](C)(O)CC[C@@H]6[C@H]5CC[C@]34C)c2=O)ccn1` [Compound 36], the microsomal CLint at 1 µM is 59 µL/min/mg.

Turning to `C[C@@]1(O)CC[C@H]2[C@H](CC[C@@H]3[C@@H]2CC[C@]2(C)[C@@H](C(=O)Cn4cnn(-c5ccnc(OC(F)(F)F)c5)c4=O)CC[C@@H]32)C1` [Compound 38], the microsomal CLint at 1 µM is below 7.5 µL/min/mg.

The next data set deals with T2, α1β2γ2 GABA receptors (α1β2γ2-CHO-TRex stable cell strain) (Homo sapiens, UniProt P14867+P47870).
T2 construct: expressed in transfected cells
T2 sequence (P14867 28-456): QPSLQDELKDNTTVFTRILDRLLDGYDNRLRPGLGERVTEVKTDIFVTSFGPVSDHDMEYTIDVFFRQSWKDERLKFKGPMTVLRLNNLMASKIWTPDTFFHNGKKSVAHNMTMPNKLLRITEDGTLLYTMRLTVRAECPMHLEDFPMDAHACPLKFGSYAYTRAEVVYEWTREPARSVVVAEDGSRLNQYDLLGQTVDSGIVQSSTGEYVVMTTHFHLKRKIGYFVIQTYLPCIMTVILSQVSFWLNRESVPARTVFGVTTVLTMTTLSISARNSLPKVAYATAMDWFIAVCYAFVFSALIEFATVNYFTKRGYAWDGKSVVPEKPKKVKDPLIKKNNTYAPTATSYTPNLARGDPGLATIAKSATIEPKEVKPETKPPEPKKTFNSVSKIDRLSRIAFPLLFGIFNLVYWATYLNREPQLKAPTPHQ
T2 sequence (P47870 25-512 limits assumed): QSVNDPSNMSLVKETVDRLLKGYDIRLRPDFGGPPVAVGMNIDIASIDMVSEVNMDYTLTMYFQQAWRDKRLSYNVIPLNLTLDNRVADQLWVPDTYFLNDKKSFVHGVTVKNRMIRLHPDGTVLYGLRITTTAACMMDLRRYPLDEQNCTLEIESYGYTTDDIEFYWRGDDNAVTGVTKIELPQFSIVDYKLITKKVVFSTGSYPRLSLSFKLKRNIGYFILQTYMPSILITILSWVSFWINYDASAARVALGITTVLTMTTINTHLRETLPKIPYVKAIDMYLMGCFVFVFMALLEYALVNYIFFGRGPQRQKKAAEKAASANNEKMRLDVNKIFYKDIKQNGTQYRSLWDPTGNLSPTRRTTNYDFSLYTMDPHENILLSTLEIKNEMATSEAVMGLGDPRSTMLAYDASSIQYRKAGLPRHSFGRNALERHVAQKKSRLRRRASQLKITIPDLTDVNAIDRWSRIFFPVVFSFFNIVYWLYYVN
T2 sequence (P18507 40-475 partner): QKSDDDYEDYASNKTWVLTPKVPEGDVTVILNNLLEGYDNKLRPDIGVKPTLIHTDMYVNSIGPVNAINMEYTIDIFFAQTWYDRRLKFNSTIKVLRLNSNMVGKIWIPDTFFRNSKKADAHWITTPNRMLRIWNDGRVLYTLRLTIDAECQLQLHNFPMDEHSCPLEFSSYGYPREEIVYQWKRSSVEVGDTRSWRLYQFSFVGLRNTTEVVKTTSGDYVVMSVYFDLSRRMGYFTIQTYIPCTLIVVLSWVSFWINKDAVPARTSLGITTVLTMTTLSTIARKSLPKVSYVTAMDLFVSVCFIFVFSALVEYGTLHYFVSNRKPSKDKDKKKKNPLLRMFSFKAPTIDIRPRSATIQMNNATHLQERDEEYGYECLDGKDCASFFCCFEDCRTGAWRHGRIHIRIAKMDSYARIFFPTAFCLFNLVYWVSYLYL
The data set can be described thus: Whole-cell patch clamp, intrasynaptic functional activity (positive allosteric regulation of GABA-induced current). It counts as cell-based. Conditions: patch clamp -60 mV, GABA at EC10-20, α1β2γ2-CHO-TRex cells. In outline: as §1
Regarding `C[C@@]1(O)CC[C@H]2[C@H](CC[C@@H]3[C@@H]2CC[C@]2(C)[C@@H](C(=O)Cn4cnn(-c5cccc(C#N)c5)c4=O)CC[C@@H]32)C1` [Compound 34], the EC50 amounted to 112 nM.

As for `Cc1cc(-n2ncn(CC(=O)[C@H]3CC[C@H]4[C@@H]5CC[C@@H]6C[C@](C)(O)CC[C@@H]6[C@H]5CC[C@]34C)c2=O)ccn1` [Compound 36], it took 119 nM to reach a half-maximal effect (EC50) and the Emax was 871%.

With `C[C@@]1(O)CC[C@H]2[C@H](CC[C@@H]3[C@@H]2CC[C@]2(C)[C@@H](C(=O)Cn4cnn(-c5ccnc(OC(F)(F)F)c5)c4=O)CC[C@@H]32)C1` [Compound 38], the concentration giving a half-maximal response (EC50) came out at 55 nM and the Emax is 700%.

The EC50 is the midpoint of the concentration-response curve. A low value points to an effect from little substance. Broadly, the Emax is the greatest response seen or fitted, relative to the assay's reference. By CLint scaled is commonly meant the capacity of the preparation to metabolise the compound, expressed as a volume cleared per time. A higher CLint scaled goes with rapid turnover. For orientation: half-life means the time in which the quantity being followed falls by half. A low value points to rapid decline.
